Compound: CN(C)C(=N)NC(=N)N [Metformin] + Nc1ncn([C@H]2C[C@H](O)[C@@H](CO)O2)c(=O)n1 [Decitabine] (partner 2 µM)
Assay: relative viability (nuclei count vs DMSO), 5 days (fraction); higher = more cells survive
Details: first compound 1000 µM
Method in brief: (§1)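 Lung cancer cell lines were seeded in 1536-well plates and dosed by pin tool the next day, with either a single drug or a fixed anchor-drug dose combined with five library-drug doses (not always all listed) spaced in √10 steps. Five days later, one step fixed the cells and stained their nuclei (final 0.05% Triton X-100, 1% formaldehyde, 1 ug/ml Hoechst), and nuclei were counted on 4× images. Relative viability is the nuclei count in treated wells divided by the count in vehicle wells, and each value is the median of duplicate plates.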

Cell Line	relative viability
NCI-H3122	0.369
PC-3 [JPC-3]	0.732
PC-14	0.235

Compound: CN(C)C(=N)NC(=N)N [Metformin] + CC(=O)Nc1cccc(-n2c(=O)n(C3CC3)c(=O)c3c(Nc4ccc(I)cc4F)n(C)c(=O)c(C)c32)c1 [Trametinib] (partner 0.02 µM)
Assay: as above
Details: first compound 10 µM
Method in brief: as §1

Cell Line	relative viability
LU99A	0.524
LXF-289	0.645
NCI-H23	0.433
NCI-H322M	0.518
NCI-H520	0.798
NCI-H596	0.965
NCI-H647	0.479
NCI-H650	1.09
NCI-H661	0.54
NCI-H727	0.404
NCI-H838	0.557
NCI-H1355	0.416
NCI-H1437	0.638
NCI-H1650	0.597
NCI-H1651	0.908
NCI-H1666	0.687
NCI-H1734	0.652
NCI-H1755	0.683
NCI-H1792	0.566
NCI-H1975	0.356
NCI-H1993	0.477
NCI-H2009	0.366
NCI-H2023	0.5
NCI-H2085	0.541
NCI-H2087	0.232
NCI-H2126	0.517
NCI-H2347	0.291
NCI-H3122	0.163
PC-3 [JPC-3]	0.683
PC-14	0.746

Same assay, conditions: first compound 31.62 µM

Cell Line	relative viability
LU99A	0.482
LXF-289	0.658
NCI-H23	0.492
NCI-H322M	0.487
NCI-H441	0.575
NCI-H520	0.622
NCI-H596	0.899
NCI-H647	0.598
NCI-H650	1
NCI-H661	0.643
NCI-H727	0.369
NCI-H838	0.572
NCI-H1355	0.356
NCI-H1437	0.703
NCI-H1650	0.602
NCI-H1651	0.999
NCI-H1666	0.676

Cell Line	relative viability
NCI-H1734	0.763
NCI-H1755	0.626
NCI-H1792	0.483
NCI-H1915	0.302
NCI-H1975	0.325
NCI-H1993	0.634
NCI-H2009	0.362
NCI-H2023	0.563
NCI-H2085	0.58
NCI-H2087	0.222
NCI-H2126	0.538
NCI-H2347	0.289
NCI-H2405	0.744
NCI-H3122	0.21
PC-3 [JPC-3]	0.717
PC-14	0.666

Same assay, conditions: first compound 100 µM

Cell Line	relative viability
LU99A	0.544
LXF-289	0.641
NCI-H23	0.384
NCI-H322M	0.506
NCI-H441	0.573
NCI-H520	0.739
NCI-H596	1.01
NCI-H647	0.498
NCI-H650	1.06
NCI-H661	0.575
NCI-H727	0.41
NCI-H838	0.541
NCI-H1355	0.395
NCI-H1437	0.631
NCI-H1650	0.718
NCI-H1651	1.01

Cell Line	relative viability
NCI-H1666	0.759
NCI-H1734	0.653
NCI-H1755	0.656
NCI-H1792	0.567
NCI-H1915	0.302
NCI-H1975	0.387
NCI-H1993	0.497
NCI-H2009	0.387
NCI-H2023	0.516
NCI-H2085	0.446
NCI-H2087	0.18
NCI-H2126	0.563
NCI-H2347	0.26
NCI-H2405	0.635
NCI-H3122	0.258
PC-14	0.767

Same assay, conditions: first compound 316.23 µM

Cell Line	relative viability
LU99A	0.433
LXF-289	0.602
NCI-H23	0.385
NCI-H322M	0.561
NCI-H441	0.442
NCI-H520	0.505
NCI-H596	0.706
NCI-H647	0.482
NCI-H650	0.817
NCI-H661	0.527
NCI-H838	0.525
NCI-H1355	0.474
NCI-H1437	0.701
NCI-H1650	0.474
NCI-H1651	0.903
NCI-H1666	0.771

Cell Line	relative viability
NCI-H1734	0.662
NCI-H1755	0.682
NCI-H1792	0.431
NCI-H1915	0.289
NCI-H1975	0.326
NCI-H1993	0.425
NCI-H2009	0.36
NCI-H2023	0.415
NCI-H2085	0.542
NCI-H2087	0.152
NCI-H2126	0.504
NCI-H2347	0.265
NCI-H2405	0.688
NCI-H3122	0.188
PC-3 [JPC-3]	0.706
PC-14	0.686

Same assay, conditions: first compound 1000 µM

Cell Line	relative viability
LU99A	0.448
LXF-289	0.602
NCI-H23	0.575
NCI-H322M	0.529
NCI-H441	0.639
NCI-H520	0.762
NCI-H596	0.872
NCI-H647	0.556
NCI-H650	0.94
NCI-H661	0.586
NCI-H727	0.349
NCI-H838	0.579
NCI-H1355	0.427
NCI-H1437	0.627
NCI-H1650	0.458
NCI-H1651	1
NCI-H1666	0.941
NCI-H1734	0.726
NCI-H1755	0.676
NCI-H1792	0.433
NCI-H1975	0.373
NCI-H1993	0.611
NCI-H2009	0.384
NCI-H2023	0.467
NCI-H2085	0.631
NCI-H2087	0.254
NCI-H2126	0.587
NCI-H2347	0.258
NCI-H2405	0.555
NCI-H3122	0.209

Reference: the supplement of paper PMC10307832
